In this assay the test system is IL2-dependent mouse cell line CTLL-2. Briefly: suppression of IL-2 induced 3H-thymidine incorporation of CTLL-2. The following applies: 72 hrs, second run (control 30168 cpm); for inhibition at 0.1 µg/mL / inhibition at 1 µg/mL: Mus musculus, CTLL-2; for inhibition at 0.1 µg/mL: read-out: Suppression. The format is cell-based. The method, then: IL2-dependent mouse cell line CTLL-2 cells were suspended in the RPMI1640 culture medium supplemented with 30% FCS to a concentration of 2×10^5 cells/ml. The suspension (50 μl) and 50 μl of concanavalin A-stimulated rat spleen cell culture supernatants containing IL2 were added to each well of 96-well microculture plates in which 100 μl of the test substance had been placed. After culturing at 37° C. in an atmosphere of 5% carbon dioxide for 20, 44, or 68 hours, 0.5 μCi/well of ^3 H-thymidine was added, and cultured for 4 hours under the same conditions. After termination of the culture, the cells were harvested by a cell harvester, and the radioactivity incorporated into the cells was measured by a liquid scintillation counter.
In general terms: Incorporation of labelled thymidine or its analogues reports DNA synthesis.

The text below walks through data of patent publication US5219884A, “Immunosuppressant” (Taito Co., Ltd., priority 1990, dated 1993).

As to `CCCCCCC(=O)CCCCCCCCCC1OC(=O)C(N)(CO)C1O` (stereo not shown) [Example 7], for the setting “0.1 μg/ml”, the 3H-thymidine uptake turned out to be 37960 cpm and the inhibition at 0.1 µg/mL is 0%. For the same compound, under “1 μg/ml”, the 3H-thymidine uptake was found to be 2088 cpm and the inhibition at 1 µg/mL was determined as 93.3%.

For the compound `CCCCCCC(O)CCCCCCCCCC(O)C(O)C(N)(CO)C(=O)O` (stereo not shown) [Example 9], for the setting “0.1 μg/ml”, the 3H-thymidine uptake amounted to 33835 cpm and the inhibition at 0.1 µg/mL was determined as 0%. Moreover, where the note is “1 μg/ml”, the 3H-thymidine uptake is 2247 cpm and the inhibition at 1 µg/mL is 92.7%.

In the case of `CCCCCCC(O)CCCCCCCCCC1OC(=O)C(N)(CO)C1O` (stereo not shown) [Example 10], where the note is “0.1 μg/ml”, the 3H-thymidine uptake is 28083 cpm and the inhibition at 0.1 µg/mL is 6.9%. Moreover, for the setting “1 μg/ml”, the 3H-thymidine uptake is given as 1844 cpm and the inhibition at 1 µg/mL was 94.1%.

Consider `CCCCCCC(=O)CCCCCC/C=C/CC1OC(=O)C(CO)(NC(C)=O)C1O` (stereo not shown) [Example 11], for which, for the setting “0.1 μg/ml”, the 3H-thymidine uptake worked out at 33948 cpm and the inhibition at 0.1 µg/mL amounted to 0%. Under “1 μg/ml”, the 3H-thymidine uptake is listed as 4876 cpm and the inhibition at 1 µg/mL stood at 84%.
